Results: the supplement of paper PMC4862054

Assays:
Conditions in all cases: incubation time: 72 h
[1] = tested on: HCC1143; assay: normalised response (% of control), CellTox Green; higher = less cell death (100 = DMSO, 0 = benzethonium chloride kill control)
Procedure, shortened: (§1)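 Breast cancer cell lines, seeded at 20 µl suspension per well, were incubated for 72 h in 384-well plates containing compound at 5 concentrations. These concentrations rose in 10-fold steps over a 10,000-fold range set for each compound. CellTox Green fluorescence (485/520 nm) was read, then CellTiter-Glo luminescence after 10 min at room temperature, and each plate was normalised to 0.1 % DMSO (100) and a positive kill control (0). Values are normalised signals, each at one concentration.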

[2] = tested on: MDA-MB-468; assay: as above
Procedure, shortened: as §1

[3] = tested on: BT-474; assay: as above
Procedure, shortened: as §1

[4] = tested on: MFM-223; assay: as above
Procedure, shortened: as §1

[5] = tested on: MDA-MB-231; assay: as above
Procedure, shortened: as §1

[6] = tested on: CAL-120; assay: as above
Procedure, shortened: as §1

[7] = tested on: HCC1599; assay: as above
Procedure, shortened: as §1

[8] = tested on: CAL-148; assay: as above
Procedure, shortened: as §1

[9] = tested on: CAL-85-1; assay: as above
Procedure, shortened: as §1

[10] = tested on: CAL-51; assay: as above
Procedure, shortened: as §1

[11] = tested on: MCF-10A; assay: as above
Procedure, shortened: as §1

[12] = tested on: Hs578T; assay: as above
Procedure, shortened: as §1

[13] = tested on: DU-4475; assay: as above
Procedure, shortened: as §1

[14] = tested on: BT-549; assay: as above
Procedure, shortened: as §1

[15] = tested on: MDA-MB-436; assay: as above
Procedure, shortened: as §1

[16] = tested on: HCC1937; assay: as above
Procedure, shortened: as §1

[17] = tested on: HDQ-P1; assay: as above
Procedure, shortened: as §1

[18] = tested on: MDA-MB-453; assay: as above
Procedure, shortened: as §1

[19] = tested on: HCC1143; assay: normalised response (% of control), CellTiter-Glo; higher = more viable cells (100 = DMSO, 0 = benzethonium chloride kill control)
Procedure, shortened: as §1

[20] = tested on: MDA-MB-468; assay: as above
Procedure, shortened: as §1

[21] = tested on: BT-474; assay: as above
Procedure, shortened: as §1

[22] = tested on: MFM-223; assay: as above
Procedure, shortened: as §1

[23] = tested on: MDA-MB-231; assay: as above
Procedure, shortened: as §1

[24] = tested on: CAL-120; assay: as above
Procedure, shortened: as §1

[25] = tested on: HCC1599; assay: as above
Procedure, shortened: as §1

[26] = tested on: CAL-148; assay: as above
Procedure, shortened: as §1

[27] = tested on: CAL-85-1; assay: as above
Procedure, shortened: as §1

[28] = tested on: CAL-51; assay: as above
Procedure, shortened: as §1

[29] = tested on: SK-BR-3; assay: as above
Procedure, shortened: as §1

[30] = tested on: MCF-10A; assay: as above
Procedure, shortened: as §1

[31] = tested on: Hs578T; assay: as above
Procedure, shortened: as §1

[32] = tested on: DU-4475; assay: as above
Procedure, shortened: as §1

[33] = tested on: BT-549; assay: as above
Procedure, shortened: as §1

[34] = tested on: MDA-MB-436; assay: as above
Procedure, shortened: as §1

[35] = tested on: HCC1937; assay: as above
Procedure, shortened: as §1

[36] = tested on: HDQ-P1; assay: as above
Procedure, shortened: as §1

[37] = tested on: MDA-MB-453; assay: as above
Procedure, shortened: as §1

Work on CN[C@@H]1C[C@H]2O[C@@](C)([C@@H]1OC)n1c3ccccc3c3c4c(c5c6ccccc6n2c5c31)C(=O)N[C@H]4O [UCN-01] (100 nM) yielded a normalised response [1] of 84.4%, a normalised response [2] of 76.9% and a normalised response [3] of 80.8%. It also gave a normalised response [4] of 80.2%, a normalised response [5] of 40.7% and a normalised response [6] of 88.8%. The normalised response [7] was 85.5%, the normalised response [8] was 86% and the normalised response [9] was 54.8%. The normalised response [10] was 56.1%, the normalised response [11] was 75.5% and the normalised response [12] was 55%. It also gave a normalised response [13] of 91.2%, a normalised response [14] of 62.6% and a normalised response [15] of 77.1%. For the same compound, the normalised response [16] was 92.9%, the normalised response [17] was 50.5% and the normalised response [18] was 90.4%. The normalised response [19] was 63.1%, the normalised response [20] was 48.2% and the normalised response [21] was 33.1%. The normalised response [22] was 70.9%, the normalised response [23] was 25% and the normalised response [24] was 37%. The normalised response [25] was 14.1%, the normalised response [26] was 109% and the normalised response [27] was 44.2%. It also gave a normalised response [28] of 39%, a normalised response [29] of 39.4% and a normalised response [30] of 24%. For the same compound, the normalised response [31] was 19.5%, the normalised response [32] was 77.8% and the normalised response [33] was 52.1%. It also gave a normalised response [34] of 52%, a normalised response [35] of 54.4% and a normalised response [36] of 68.3%. The normalised response [37] was 62.4%.
With N[C@@H](CSC(c1ccccc1)(c1ccccc1)c1ccccc1)C(=O)O [S-trityl-L-cysteine] (400 nM) the normalised response [1] was 111%, the normalised response [2] was 125% and the normalised response [3] was 94.5%. For the same compound, the normalised response [4] was 102%, the normalised response [5] was 104% and the normalised response [6] was 97.1%. For the same compound, the normalised response [7] was 101%, the normalised response [8] was 80.7% and the normalised response [9] was 99.5%. The normalised response [10] was 110%, the normalised response [11] was 109% and the normalised response [12] was 79.2%. It also gave a normalised response [13] of 97.9%, a normalised response [14] of 71.8% and a normalised response [15] of 72.6%. For the same compound, the normalised response [16] was 61.4%, the normalised response [17] was 109% and the normalised response [18] was 102%. It also gave a normalised response [19] of 102%, a normalised response [20] of 105% and a normalised response [21] of 102%. For the same compound, the normalised response [22] was 103%, the normalised response [23] was 101% and the normalised response [24] was 104%. For the same compound, the normalised response [25] was 112%, the normalised response [26] was 102% and the normalised response [27] was 102%. It also gave a normalised response [28] of 105%, a normalised response [29] of 93.5% and a normalised response [30] of 92.4%. The normalised response [31] was 97.3%, the normalised response [32] was 101% and the normalised response [33] was 100%. The normalised response [34] was 98.9%, the normalised response [35] was 98.2% and the normalised response [36] was 99%. It also gave a normalised response [37] of 104%.
Cc1ccc(-n2nc(C(C)(C)C)cc2NC(=O)Nc2ccc(OCCN3CCOCC3)c3ccccc23)cc1 [Doramapimod] (100 nM) gave a normalised response [1] of 104%, a normalised response [2] of 89% and a normalised response [3] of 94.5%. For the same compound, the normalised response [4] was 99.4%, the normalised response [5] was 82.1% and the normalised response [6] was 95.8%. For the same compound, the normalised response [7] was 97.4%, the normalised response [8] was 100% and the normalised response [9] was 85.4%. It also gave a normalised response [10] of 101%, a normalised response [11] of 93.5% and a normalised response [12] of 105%. It also gave a normalised response [13] of 97.7%, a normalised response [14] of 77.5% and a normalised response [15] of 98.5%. The normalised response [16] was 97%, the normalised response [17] was 101% and the normalised response [18] was 98.1%. For the same compound, the normalised response [19] was 97.1%, the normalised response [20] was 89.6% and the normalised response [21] was 94.2%. The normalised response [22] was 91.8%, the normalised response [23] was 96.5% and the normalised response [24] was 99.4%. The normalised response [25] was 93.7%, the normalised response [26] was 79.7% and the normalised response [27] was 92.4%. It also gave a normalised response [28] of 99.5%, a normalised response [29] of 90.8% and a normalised response [30] of 85.3%. For the same compound, the normalised response [31] was 98.7%, the normalised response [32] was 93.7% and the normalised response [33] was 106%. The normalised response [34] was 100%, the normalised response [35] was 89.9% and the normalised response [36] was 93%. The normalised response [37] was 99.4%.
Compound CC(=O)Nc1ccc(C(=O)Nc2ccccc2N)cc1 [Tacedinaline] (10 nM) has a normalised response [1] of 96.9%, a normalised response [2] of 133% and a normalised response [3] of 96.6%. The normalised response [4] was 97.2%, the normalised response [5] was 108% and the normalised response [6] was 98.8%. It also gave a normalised response [7] of 99.9%, a normalised response [8] of 95% and a normalised response [9] of 105%. For the same compound, the normalised response [10] was 83.3%, the normalised response [11] was 104% and the normalised response [12] was 106%. It also gave a normalised response [13] of 101%, a normalised response [14] of 85.9% and a normalised response [15] of 80.4%. For the same compound, the normalised response [16] was 97.9%, the normalised response [17] was 104% and the normalised response [18] was 89.7%. For the same compound, the normalised response [19] was 99.7%, the normalised response [20] was 104% and the normalised response [21] was 101%. For the same compound, the normalised response [22] was 101%, the normalised response [23] was 98.5% and the normalised response [24] was 102%. The normalised response [25] was 104%, the normalised response [26] was 105% and the normalised response [27] was 103%. The normalised response [28] was 86.8%, the normalised response [29] was 95.3% and the normalised response [30] was 101%. The normalised response [31] was 90.1%, the normalised response [32] was 99.6% and the normalised response [33] was 102%. The normalised response [34] was 96.9%, the normalised response [35] was 94.8% and the normalised response [36] was 96.1%. For the same compound, the normalised response [37] was 107%.
